Assay results from patent US20200231562A1, “NOVEL MACROLIDE ANTIBIOTICS” (HELMHOLTZ-ZENTRUM FÜR INFEKTIONSFORSCHUNG GMBH, priority 2014, published 2020).
Converted amounts (≈) assume the structure as drawn.

What was measured:
[1] = tested on: S. aureus N315 wildtype (WT); assay: Susceptibility (MIC) of S. aureus N315 wildtype; assay type: cell-based; details: Staphylococcus aureus
[2] = tested on: S. aureus N315 mutant Mt50DscA.1; assay: Susceptibility (MIC) of Disciformycin A-resistant mutant; assay type: cell-based; details: Staphylococcus aureus
[3] = tested on: S. aureus N315 mutant Mt50DscA.2; assay: as above; assay type: cell-based; details: Staphylococcus aureus
[4] = tested on: S. aureus N315 mutant Mt50DscA.3; assay: as above; assay type: cell-based; details: Staphylococcus aureus
[5] = tested on: S. aureus N315 mutant Mt50DscA.4; assay: as above; assay type: cell-based; details: Staphylococcus aureus
[6] = tested on: S. aureus N315 mutant Mt50DscA.5; assay: as above; assay type: cell-based; details: Staphylococcus aureus
[7] = tested on: S. aureus N315 mutant Mt50DscA.6; assay: as above; assay type: cell-based; details: Staphylococcus aureus
[8] = tested on: S. aureus N315 mutant Mt50DscA.8; assay: as above; assay type: cell-based; details: Staphylococcus aureus
[9] = tested on: S. aureus N315 Mt50DscA.9; assay: as above; assay type: cell-based; details: Staphylococcus aureus
[10] = tested on: S. aureus N315 mutant Mt50DscA.10; assay: as above; assay type: cell-based; details: Staphylococcus aureus
[11] = tested on: S. aureus N315 mutant Mt50DscA.11; assay: as above; assay type: cell-based; details: Staphylococcus aureus
[12] = tested on: primary monocytes from human peripheral blood; assay: MTT assay, cytotoxic activity; assay type: cell-based; details: incubation 24 or 48 hours
Description: The cytotoxic activity of gulmirecin A (3) and gulmirecin B (4) against human cells was evaluated in the well-established MTT assay using primary monocytes from human peripheral blood as well as transformed lung epithelial cell A-549 cell and leukemic Mono Mac 6 cells. Furthermore, 3 and 4 were tested against K-562, HUVEC, and HeLa cells.
Human primary monocytes were isolated from leukocyte concentrates, obtained from the Institute of Transfusion Medicine at the University Hospital Jena, Germany. The concentrates were prepared from the blood of healthy adult human donors who had not taken any anti-inflammatory medication for the 10 days prior to blood donation, as described. In brief, freshly withdrawn peripheral blood was pretreated with citrate-phosphate-dextrose solution as anticoagulant and processed with the 2C+ protocol of the Atreus Whole Blood Processing System (Terum BCT). Peripheral blood mononuclear cells (PBMC) were isolated by dextran sedimentation and centrifugation on LSM 1077 lymphocyte separation medium (PAA Laboratories). For isolation of monocytes, the PBMC were washed twice with ice-cold phosphate buffered saline (PBS) and plated (density 2×10^7 cells/ml) in culture flasks (Greiner Bio-One) containing PBMC medium (RPMI 1640 medium supplemented with 100 U/ml penicillin, 100 μg/ml streptomycin and 2 mM L-glutamine) for 1.5 hours at 37° C., 5% CO2. Non-adherent cells were removed; adherent monocytes were scraped, washed with ice-cold PBS and resuspended in ice-cold PBS with a purity of >85%, defined by forward- and side-light scatter properties and detection of the CD14 surface molecule by flow cytometry (BD FACS Calibur). […]
Cells (3×10^5 Mono Mac 6, 1×10^5 A-549 cells, or 2×10^6 monocytes per well) were seeded in a 96-well plate in the respective medium (100 μl/well). […] Absorbance of each well was measured at 570 nm in a Multiskan™ microplate spectrophotometer (Thermo Scientific).

HUVEC cells = assay: Antiproliferative effect (methylene blue staining); assay type: cell-based, human; details: at a concentration of 100 μM
Description: The human monocytic cell line Mono Mac 6 was cultured in RPMI 1640 medium supplemented with FCS (10%, v/v), penicillin (100 U/ml), streptomycin (100 μg/ml), insulin (10 μg/ml), oxaloacetic acid (1 mM), sodium pyruvate (1 mM), and 1× non-essential amino acids at 37° C. and 5% CO2. A-549 cells (DSM ACC-107) were cultured in DMEM high glucose (4.5 g/l) medium supplemented with FCS (10% v/v), penicillin (100 U/ml) and streptomycin (100 μg/ml) at 37° C. in a 5% CO2 incubator. K-562 (DSM ACC 10) and HeLa cells (DSM ACC 57) were grown in RPMI 1640, whereas cells of HUVEC (ATCC CRL-1730) were cultured in DMEM medium. The respective media were supplemented with ultraglutamine 1 (10 ml/l), gentamicin sulfate (500 μl/l), and FCS (10% v/v).
The test substances were dissolved in methanol before being diluted in DMEM. The adherent cells were harvested at the logarithmic growth phase after soft trypsinization using 0.25% trypsin in PBS containing 0.02% EDTA. For each experiment, approximately 10,000 cells were seeded with 0.1 ml culture medium per well of the 96-well microplates. […] In case of K-562 cells, the number of viable cells in every well was determined using the CellTiter-Blue1 assay. […] The optical densities were measured at 660 nm in a SUNRISE microplate reader (TECAN).

SMILES	MIC [1] [µg/mL]	MIC [2] [µg/mL]	MIC [3] [µg/mL]	MIC [4] [µg/mL]	MIC [5] [µg/mL]	MIC [6] [µg/mL]	MIC [7] [µg/mL]	MIC [8] [µg/mL]	MIC [9] [µg/mL]	MIC [10] [µg/mL]	MIC [11] [µg/mL]	cell viability / cytotoxicity (MTT) [12]	inhibition of proliferation (HUVEC cells)
C/C=C(/C)[C@H]1C/C=C(\C)[C@@H](O[C@H]2O[C@H](CO)[C@@H](O)[C@@H]2O)[C@H](OC(=O)CC(C)C)C(=O)C/C=C(/C)C(=O)O1 [Compound 1, disciformycin A]	4 (≈ 7.62 µM)	> 64	> 64	> 64	> 64	64 (≈ 122 µM)	> 64	> 64	> 64	> 64	> 64	–	–
C/C=C(/C)[C@H]1C/C=C(\C)[C@@H](O[C@H]2O[C@H](CO)[C@@H](O)[C@@H]2O)[C@H](OC(=O)CC(C)C)C(=O)C[C@@H](O)[C@H](C)C(=O)O1 [Compound 3, gulmirecin A]	4 (≈ 7.37 µM)	> 64	> 64	> 64	> 64	64 (≈ 118 µM)	> 64	> 64	> 64	> 64	> 64	no reduction in cell viability at the concentrations required for antibacterial activity	did not inhibit
C/C=C(/C)[C@H]1C/C=C(\C)[C@@H](O[C@H]2O[C@H](CO)[C@@H](O)[C@@H]2O)[C@H](O)C(=O)CC[C@H](C)C(=O)O1 [Compound 4, gulmirecin B]	32 (≈ 72.3 µM)	> 64	> 64	> 64	> 64	> 64	> 64	> 64	> 64	> 64	> 64	no reduction in cell viability at the concentrations required for antibacterial activity	did not inhibit
